# Laboratory results reported in patent US11696903B2, “Compounds and methods for scavenging dicarbonyl electrophiles” (VANDERBILT UNIVERSITY, priority 2019, dated 2023).
# How the values were obtained:
# [1] = Reaction rate of scavengers with dicarbonyl electrophiles / LG relative to lysine; conditions: faster than lysine
# From the text: Under conditions such as inflammation and/or accumulated mutations, epithelial cells and adjacent immune cells express genes encoding enzymes involved in carcinogenesis, such as prostaglandin-endoperoxide synthase (PGHS2; COX2), NADPH oxidases, and spermine oxidase. The products of these enzymes (prostaglandins, O2D, and H2O2 plus 3-aminopropanal) lead to formation of dicarbonyl electrophiles: levuglandins (LGs), malondialdehyde (MDA), 4-oxo-nonenal (4-O NE), and acrolein. Electrophiles may lead to immune dysfunction and neoplastic risk by forming adducts with proteins and DNA11-15. However, the role of these reactive aldehydes in colon carcinogenesis is previously unknown. The present inventors have discovered that the level of LG-protein adducts is increased in the colon tissues of i) human ulcerative colitis (UC), colitis-associated carcinogenesis (CAC), and CRC; ii) mice treated with azoxymethane-dextran sulfate sodium (AOM-DSS), a model of CAC; and iii) transgenic mice with a tamoxifen-inducible disruption of Apc using the colon-specific, caudal type homeobox 2 (CDX2) Cre (CDX2P-CreERT2;Apcff), which recapitulates sporadic/genetically-driven CRC. […]
# [2] = test system: Lysyl-LG adducts in AGS cells; experiment: Lysyl-LG adducts in AGS cells infected with H. pylori PMSS1; assay type: cell-based, human
# Description: (§1) FIGS. 15A, 15B, and 15C are graphs showing C57BL/6 (A) or INS-GAS mice (B) were infected for 8 weeks with H. pylori PMSS1. Lysyl-LG adducts were measured in the gastric tissues by LC/ESI/MS/MS. *P<0.05. (C) Lysyl-LG adducts concentration was determined in AGS cells infected (plain bars) or not (open bars) with H. pylori PMSS1 for 24 h, in the presence or absence of EtSA. *P<0.05 vs. uninfected cells. § P<0.05 vs. infected cells without EtSA.
# […] FVB/N insulin-gastrin (INS-GAS) mice and Mongolian gerbils were infected for 8 wk with Hp PMSS1 and 7.13, respectively; EtSA (0.75% in water) was given to animals beginning one wk post-infection. Lys-LG adducts, a marker of electrophile reactions, and EtSA were quantified by LC/EST/MS/MS. Histology was analyzed on H&E staining. DNA damage was evaluated by pH2AX staining. Hp colonization was quantified by culture. Mucosal immune responses were determined by RNA profiling and by Luminex assay. Mice were imaged using PET/CT with ^18F-FDG (inflammation marker) and ^18F—NaF (tumor marker).
# To further determine whether ethylsalicylamine (EtSA) prevents the formation of bifunctional electrophiles during H. pylori infection, the […] were treated or not with EtSA 30 min prior to the infection.
# lysyl-LG adducts = experiment: Lysyl-LG adducts in gastric tissues of H. pylori-infected mice (LC/ESI/MS/MS); assay type: in vivo; conditions: EtSA 0.75% in water from one wk post-infection, 8 wk infection
# Description: as §1
# FIG. 17 is a graph showing reduction in the concentration of lysyl-levuglandin adducts in the stomachs of H. pylori infected mice treated with 2-hydroxybenzylamine for 8 weeks.
# (§2) As discussed further in the Examples, the human gastric epithelial cell line AGS was infected with Hp PMSS1±10 mM EtSA. FVB/N insulin-gastrin (INS-GAS) mice and Mongolian gerbils were infected for 8 wk with Hp PMSS1 and 7.13, respectively; EtSA (0.75% in water) was given to animals beginning one wk post-infection. Lys-LG adducts, a marker of electrophile reactions, and EtSA were quantified by LC/EST/MS/MS. Histology was analyzed on H&E staining. DNA damage was evaluated by pH2AX staining. Hp colonization was quantified by culture. Mucosal immune responses were determined by RNA profiling and by Luminex assay. Mice were imaged using PET/CT with ^18F-FDG (inflammation marker) and ^18F—NaF (tumor marker). […]
# [3] = EtSA in gastric tissues (LC/ESI/MS/MS); assay type: in vivo, INS-GAS mice; conditions: EtSA in drinking water
# Description: FIGS. 16A, 16B, 16C, 16D, 16E, and 16F show INS-GAS mice (8 per group) were infected or not with H. pylori strain PMS for 8 weeks and then treated with EtSA (7.5 mg/ml) one week after infection. (A) EtSA concentration in gastric tissues; **P<0.01, ****P<0.0001 vs. mice without EtSA. (B) Frequency of diagnoses. IMC, intramucosal carcinoma; LGD, low grade dysplasia; ND, no dysplasia. (C) Quantification of extent of dysplasia and cancer as a percentage of tissue sections. (D) H&E staining of INS-GAS mouse stomach tissues, showing carcinoma in an infected mouse; scale bar, 50 μm. In B and C, *P<0.05, **P<0.01 vs. infected mice.
# as §2
smiles,measurement,setting,value
"CCc1ccc(O)c(CN)c1 [EtHOBA, 5-ethyl-2-hydroxybenzylamine]",rate of reaction with dicarbonyl electrophiles,[1],3 orders of magnitude
same,Lys-LG adduct levels,[2]; AGS cells infected with Hp PMSS1 ± 10 mM EtSA,inhibited
same,lysyl-LG adduct concentration,"[2]; H. pylori-infected AGS cells, 24 h, 10 μM EtSA",completely attenuated
same,Lys-LG adducts in infected mice,lysyl-LG adducts,completely inhibited
same,EtSA bioavailability in the stomach,[3],bioavailable in the stomach
